One experiment addresses IRAK4 (Homo sapiens (Human), UniProt Q9NWZ3). In words: IRAK4 enzymatic assay. It counts as biochemical. As to conditions: human recombinant His-TEV-IRAK4, ATP 2 μM, STK1-biotin peptide, FlashPlate. The protocol:
IRAK4 is a human purified recombinant enzyme (His-TEV-IRAK1 (194-712)
IRAK4 hydrolyses ATP, autophosphorylates and phosphorylates a Serine/Threonine generic peptidic substrate (STK: 61ST1BLC from CisBio International based in Bagnols/Cèze FR).
Measurement of IRAK-4 inhibition is performed in streptavidin coated 384 well FlashPlate (PerkinElmer #SMP410A). His-TEV-IRAK4 (20 ng/well), ATP (2 μM, [^33P]ATP 0.25 μCi/well), STK1-biotin peptide (300 nM) and compounds in DMSO (range of concentrations from 20 μM to 1 nM) or controls (2% DMSO) are incubated for 3 hours at 30° C. in assay buffer: Hepes pH7.0 50 mM, Fatty acid-free BSA 0.1%, Dithiothreitol DTT 2 mM, MgCl2 10 mM, EGTA 0.5 mM, Tween-20 0.01%, MnCl2 5 mM. Kinase reaction is stopped by addition of EDTA. Supernatant is discarded, plates are washed three times with 150 mM NaCl and radioactivity is then measured in a Microbeta Trilux reader.

The next experiment has as its target IRAK1 (Homo sapiens (Human), UniProt P51617). As to the kind of experiment: IRAK1 enzymatic assay. As to conditions: human recombinant His-TEV-IRAK1, ATP 1 μM, FlashPlate. It counts as biochemical. The protocol: IRAK1 is a human purified recombinant enzyme (His-TEV-IRAK1 (194-712)) In this assay, IRAK-1 hydrolyses ATP and autophosphorylates.
Measurement of IRAK-1 inhibition is performed in streptavidin coated 384 well FlashPlate (PerkinElmer #SMP410A).
His-TEV-IRAK-1 (15 ng/well), ATP (1 μM, [^33P]ATP 0.25 μCi/well) and compounds in DMSO (range of concentrations from 20 μM to 1 nM) or controls (2% DMSO) are incubated for 3 hours at 30° C. in assay buffer: Hepes pH7.0 50 mM, Fatty acid-free BSA 0.1%, Dithiothreitol DTT 2 mM, MgCl2 10 mM, EGTA 0.5 mM, Triton-X-100 0.01%. Kinase reaction is stopped by addition of EDTA. Supernatant is discarded, plates are washed three times with 150 mM NaCl and radioactivity is then measured in a Microbeta Trilux reader.

Chain of IRAK1 (P51617 194-712): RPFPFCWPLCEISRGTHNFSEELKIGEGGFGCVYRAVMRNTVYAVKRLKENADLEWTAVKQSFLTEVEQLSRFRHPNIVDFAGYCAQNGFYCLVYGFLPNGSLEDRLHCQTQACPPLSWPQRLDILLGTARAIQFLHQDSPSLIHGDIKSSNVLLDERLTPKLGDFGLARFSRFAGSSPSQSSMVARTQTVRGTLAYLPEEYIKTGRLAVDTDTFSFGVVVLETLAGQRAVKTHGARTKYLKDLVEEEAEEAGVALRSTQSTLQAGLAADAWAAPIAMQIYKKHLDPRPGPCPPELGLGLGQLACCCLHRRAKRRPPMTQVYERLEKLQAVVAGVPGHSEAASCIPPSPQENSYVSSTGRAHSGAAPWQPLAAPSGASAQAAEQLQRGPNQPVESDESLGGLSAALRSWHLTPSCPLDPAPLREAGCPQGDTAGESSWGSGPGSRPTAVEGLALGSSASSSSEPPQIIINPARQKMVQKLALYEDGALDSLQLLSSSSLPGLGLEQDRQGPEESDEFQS
Chain of IRAK4 (Q9NWZ3 whole entry): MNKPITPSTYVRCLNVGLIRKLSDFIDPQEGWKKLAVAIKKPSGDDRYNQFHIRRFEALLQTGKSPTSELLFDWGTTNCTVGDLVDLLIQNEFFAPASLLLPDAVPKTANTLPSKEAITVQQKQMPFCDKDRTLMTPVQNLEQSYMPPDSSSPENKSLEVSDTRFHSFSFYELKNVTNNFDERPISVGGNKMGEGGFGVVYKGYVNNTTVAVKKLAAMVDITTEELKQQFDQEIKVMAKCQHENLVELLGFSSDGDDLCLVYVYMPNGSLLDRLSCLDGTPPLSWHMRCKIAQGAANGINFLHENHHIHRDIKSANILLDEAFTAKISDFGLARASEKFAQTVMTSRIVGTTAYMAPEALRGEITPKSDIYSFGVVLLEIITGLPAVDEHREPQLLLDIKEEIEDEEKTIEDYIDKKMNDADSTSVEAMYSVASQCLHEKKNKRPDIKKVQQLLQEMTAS

In the case of `O=C(Nc1nc2ccccc2[nH]1)c1cccc(Cn2nc(-c3ccc(CO)nc3)ccc2=O)c1` [Example 7, N-(1H-Benzoimidazol-2-yl)-3-[3-(6-hydroxymethyl-pyridin-3-yl)-6-oxo-6H-pyridazin-1-ylmethyl]-benzamide], the half-maximal inhibitory concentration (IC50) at IRAK4 is less than 100 nM.
Consider `Cc1cc(-c2ccc(=O)n(Cc3cccc(C(=O)Nc4nc5ccccc5[nH]4)c3)n2)cnn1` [Example 13, N-(1H-benzo[d]imidazol-2-yl)-3-((3-(6-methylpyridazin-4-yl)-6-oxopyridazin-1(6H)-yl)methyl)benzamide], for which the concentration for half-maximal inhibition (IC50) at IRAK1 and on IRAK4 was 100 to 1000 nM in each case.
With `COC(=O)c1ccc2[nH]c(NC(=O)c3cccc(Cn4nc(-c5cccnc5)ccc4=O)c3)nc2c1` [Example 4, 2-[3-(6-Oxo-3-pyridin-3-yl-6H-pyridazin-1-ylmethyl)-benzoylamino]-1H-benzoimidazole-5-carboxylic acid methyl ester], at IRAK4, the IC50 fell in the range of 1000 to 5000 nM.
With `CC(C)(C)C(=O)Oc1ccc2[nH]c(NC(=O)c3cccc(Cn4nc(-c5cccnc5)ccc4=O)c3)nc2c1` [Example 1, 2,2-Dimethyl-propionic acid 2-[3-(6-oxo-3-pyridin-3-yl-6H-pyridazin-1-ylmethyl)-benzoylamino]-1H-benzoimidazol-5-yl ester], the results for the half-inhibitory concentration (IC50) at IRAK1 and on IRAK4 were 100 to 1000 nM and less than 100 nM, respectively.
Turning to `COc1ccc2[nH]c(NC(=O)c3cccc(Cn4nc(-c5cccnc5)ccc4=O)c3)nc2c1` [Example 16, N-(5-methoxy-1H-benzo[d]imidazol-2-yl)-3-((6-oxo-3-(pyridin-3-yl)pyridazin-1(6H)-yl)methyl)benzamide], the IC50 at IRAK1 is less than 100 nM; on IRAK4, 100 to 1000 nM.
As to `Cc1ccncc1-c1ccc(=O)n(Cc2cccc(C(=O)Nc3nc4ccccc4[nH]3)c2)n1` [Example 12, N-(1H-benzo[d]imidazol-2-yl)-3-((3-(4-methylpyridin-3-yl)-6-oxopyridazin-1(6H)-yl)methyl)benzamide], the IC50 on IRAK4 lay in the range of 100 to 1000 nM.
The same measure, in the same setting: to `Cn1c(NC(=O)c2cccc(Cn3nc(-c4cccnc4)ccc3=O)c2)nc2ccccc21` [Example 3, N-(1-Methyl-1H-benzoimidazol-2-yl)-3-(6-oxo-3-pyridin-3-yl-6H-pyridazin-1-ylmethyl)-benzamide] belongs 1000 to 5000 nM.
`O=C(Nc1nc2ccccc2[nH]1)c1cccc(Cn2nc(-c3cccnc3)ccc2=O)c1` [Example 2, N-(1H-Benzoimidazol-2-yl)-3-(6-oxo-3-pyridin-3-yl-6H-pyridazin-1-ylmethyl)-benzamide]: the half-inhibitory concentration (IC50) was less than 100 nM at IRAK1 and 100 to 1000 nM at IRAK4.
The matching figures for `O=C(Nc1nc2ccccc2[nH]1)c1cccc(Cn2nc(-c3cncnc3)ccc2=O)c1` [Example 8, N-(1H-Benzoimidazol-2-yl)-3-(6-oxo-3-pyrimidin-5-yl-6H-pyridazin-1-ylmethyl)-benzamide]: 100 to 1000 nM and 100 to 1000 nM.
In the same order, the values of `O=C(Nc1nc2cc(CO)ccc2[nH]1)c1cccc(Cn2nc(-c3cccnc3)ccc2=O)c1` [Example 5, N-(5-Hydroxymethyl-1H-benzoimidazol-2-yl)-3-(6-oxo-3-pyridin-3-yl-6H-pyridazin-1-ylmethyl)-benzamide] are less than 100 nM and less than 100 nM.
Turning to `COc1cc2nc(NC(=O)c3cccc(Cn4nc(-c5cccnc5)ccc4=O)c3)[nH]c2cc1OC` [Example 15, N-(5,6-dimethoxy-1H-benzo[d]imidazol-2-yl)-3-((6-oxo-3-(pyridin-3-yl)pyridazin-1(6H)-yl)methyl)benzamide], the IC50 is 100 to 1000 nM at IRAK1 and less than 100 nM at IRAK4.
`Cc1cc(=O)n(Cc2cccc(C(=O)Nc3nc4ccccc4[nH]3)c2)nc1-c1cccnc1` [Example 10]: on IRAK1, the half-maximal inhibitory concentration (IC50) lay within 100 to 1000 nM.
For the compound `CN(C)C(=O)Cc1ccc2[nH]c(NC(=O)c3cccc(Cn4nc(-c5cccnc5)ccc4=O)c3)nc2c1` [Example 6, N-(5-Dimethylcarbamoylmethyl-1H-benzoimidazol-2-yl)-3-(6-oxo-3-pyridin-3-yl-6H-pyridazin-1-ylmethyl)-benzamide], the half-maximal inhibitory concentration (IC50) at IRAK1 and at IRAK4 was less than 100 nM throughout.
Consider `O=C(Nc1nc2ccccc2[nH]1)c1cccc(Cn2nc(-c3cncc(CO)c3)ccc2=O)c1` [Example 17, N-(1H-Benzoimidazol-2-yl)-3-[3-(5-hydroxymethyl-pyridin-3-yl)-6-oxo-6H-pyridazin-1-ylmethyl]-benzamide], for which the IC50 on IRAK1 and at IRAK4 was less than 100 nM in each case.
Take `CN(C)Cc1ccc(-c2ccc(=O)n(Cc3cccc(C(=O)Nc4nc5ccccc5[nH]4)c3)n2)cn1` [Example 11, N-(1H-benzo[d]imidazol-2-yl)-3-((3-(6-((dimethylamino)methyl)pyridin-3-yl)-6-oxopyridazin-1(6H)-yl)methyl)benzamide]: the IC50 at IRAK1 and at IRAK4 was 1000 to 5000 nM in each case.
`Nc1ccc(-c2ccc(=O)n(Cc3cccc(C(=O)Nc4nc5ccccc5[nH]4)c3)n2)cn1` [Example 9, 3-[3-(6-Amino-pyridin-3-yl)-6-oxo-6H-pyridazin-1-ylmethyl]-N-(1H-benzoimidazol-2-yl)-benzamide]: the IC50 at IRAK1 and at IRAK4 was less than 100 nM throughout.
As to `CN(C)Cc1cncc(-c2ccc(=O)n(Cc3cccc(C(=O)Nc4nc5ccccc5[nH]4)c3)n2)c1` [Example 14, N-(1H-benzo[d]imidazol-2-yl)-3-((3-(5-((dimethylamino)methyl)pyridin-3-yl)-6-oxopyridazin-1(6H)-yl)methyl)benzamide], at IRAK4, the IC50 lay in the range of 1000 to 5000 nM.
